{"source": "patent US20130011393A1", "about": "“BAD PATHWAY GENE SIGNATURE” (priority 2010, published 2013)", "type_in_all_cases": "cell-based, human", "key": {"A2780S and A2780CP cells": {"system": "A2780S and A2780CP cells", "assay": "Apoptotic nuclei after cisplatin in cells transfected with BAD phosphorylation-site mutants", "conditions": "1 μM (A2780S) or 10 μM (A2780CP) cisplatin, 48 hours", "procedure": "(§1) In FIGS. 14A and 14B, OVCA cell lines A2780S and A2780CP, respectively, were transfected with Flag vectors expressing wild-type BAD (WT) or BAD harboring serine (S) to alanine point mutations in serine-112, -136, or -155 (S112A, S136A, S155A). These S to A phosphorylation site mutations prevent phosphorylation of the BAD protein. Transfected cells were treated with vehicle or 1 μM (A2780S) or 10 μM (A2780CP) cisplatin for 48 hours and evaluated for the presence of apoptotic nuclei. FIG. 14C is a Western blot showing depletion of PP2C and PKA by siRNA. Controls included a non-targeting siRNA (NT). GAPDH was used as a loading control. […] Error bars indicate standard error of the mean.\n(§2) RNA duplexes for PP2C/PPM1A (s10909 from ABI), cAMP-dependent protein kinase (PKA; 6406 from Cell Signaling), and vectors containing mutated BAD (pFlag-600, a kind gift from Dr. Hong Gang Wang, MCC) were transfected using the Nucleofector transfection kit, with non-targeting Silencer negative control #2 siRNA (ABI), according to manufacturer's protocols (Amaxa).\n(§3) Morphologic assessment of condensed chromatin and fragmented DNA quantified percent apoptotic nuclei. Cells were fixed in 4% paraformaldehyde, and nuclei were stained with bis-benzimide trihydrochloride (0.5 μg/ml; Molecular Probes) and quantified using fluorescence microscopyl^5."}, "A2780S cells": {"system": "A2780S cells", "assay": "Apoptotic nuclei after cisplatin following siRNA depletion of PKA or PP2C/PPM1A", "conditions": "1 μM cisplatin", "procedure": "as §1, §2, §3"}, "[1]": {"system": "OVCA cell lines (A2780S, A2780CP, A2008, C13)", "assay": "Cisplatin-resistance by CellTiter-96 MTS proliferation assay in serially cisplatin-treated OVCA cell lines", "conditions": "after in vitro cisplatin-treatment/expansion cycles versus cells prior to serial cisplatin treatment", "procedure": "Acquisition and culture conditions for the expansion of OVCA cells lines (T8, OVCAR5, OV2008, IGROV1, C13, A2780S, A2780CP, and A2008) were reported previouslyl^10. Cells were subjected to sequential treatment with increasing doses of cis-diammine-dichloroplatinum (cisplatin), using three dosing schedules resulting in […] treatment/expansion cycles. Treatment schedules A, B, and C included three treatments with 1, 2, and 3 μg/mL cisplatin, respectively, followed by three treatments with 3, 4, and 5 μg/mL, respectively. Each cisplatin treatment was followed by a cell recovery/expansion phase. Both cisplatin-resistance and genome-wide expression changes were measured serially in each cell line at baseline and after 3 and 6 cisplatin-treatment/expansion cycles. Cisplatin-resistance was quantified using CellTiter-96 MTS proliferation assays (Fisher Scientific) and analyzed genome-wide expression using Affymetrix Human U133 Plus 2.0 GeneChips as previously described^10,11 (Gene Expression Omnibus (GEO) accession number GSE23553).\nMany of the BAD-pathway genes found to be associated with evolution of in vitro cisplatin-resistance are known to influence BAD phosphorylation (FIG. 12). The inventors therefore tested the hypothesis that BAD-phosphorylation status is associated with OVCA cisplatin-resistance. […]"}}, "data": [{"molecule": "N.N.[Cl][Pt][Cl]", "note": "[cisplatin, cis-diammine-dichloroplatinum]", "values": [{"measurement": "cisplatin sensitivity (apoptotic nuclei)", "setting": "A2780S and A2780CP cells; cells transfected with BAD[112A]", "value": "no effect"}, {"measurement": "cisplatin-induced apoptosis (apoptotic nuclei)", "setting": "A2780S and A2780CP cells; cells transfected with BAD[S136A], BAD[S155A] versus wild-type BAD", "value": "increased"}, {"measurement": "cisplatin-induced apoptosis (percent apoptotic nuclei)", "setting": "A2780S cells; siRNA depletion of PKA versus non-targeting control siRNA", "value": "increased"}, {"measurement": "cisplatin-induced apoptosis (percent apoptotic nuclei)", "setting": "A2780S cells; siRNA depletion of PP2C/PPM1A", "value": "decreased"}, {"measurement": "cisplatin EC50", "setting": "[1]", "value": "higher"}]}]}
